US20110263539A1, “SHIP 1 MODULATOR COMPOUNDS” (THE UNIVERSITY OF BRITISH COLUMBIA, priority 2006, published 2011)

Legend:
[1] = tested on: SHIP C2 domain; experiment: Scintillation proximity assay, C2 domain; assay type: binding; conditions: [3H]-Compound 100, SPA beads
Method: (§1) Compound 100 was radiolabelled with tritium by GE Healthcare (Piscataway, N.J.) to a specific activity of 42 Ci/mmole. Copper chelate (His-Tag) YSi SPA Scintillation Beads (GE Healthcare, Piscataway, N.J.) were diluted in 0.25% BSA/TBS to 1.5 mg/mL and recombinant, His6-tagged protein added at the indicated concentrations: wild-type (1 μM), ΔC2 SHIP enzyme (1 pM) or C2 domain (10 nM). Protein was allowed to bind 1 h at 23° C., and 250 μg of beads were aliquoted per well of a 96-well plate. 5 μCi of [^3H]-Compound 100 was added per well, the plate gently agitated for 30 min and the amount of bead associated radioactivity quantified by counting in a Wallac BetaPlate plate scintillation counter.
(§2) Isolated recombinant, His6-tagged C2 domain was expressed and its PI-3,4-P2 binding ability was determined using protein lipid overlay assays. Purified C2 domain was incubated with membrane strips spotted with PI-3,4-P2 and bound protein detected using an anti-His6 antibody. As shown in FIG. 11C the C2 domain bound PI-3,4-P2 and this binding was inhibited by Compound 100, consistent with both Compound 100 and PI-3,4-P2 interacting with the C2 domain at a common binding site.

[2] = tested on: ΔC2 SHIP; experiment: SHIP enzyme assay with C2 domain deleted SHIP; assay type: biochemical; conditions: PI-3,4-P2 20 μM or Compound 100 3 μM, 30 μM IP4
Excerpt: A His6 tagged SHIP ΔC2 domain deletion mutant (deleting residues 725 to 863) in the mammalian expression vector pME18S was generated by a standard PCR-based methodology. An N-terminal His6 C2 domain construct was also generated by PCR inserted into the pET28C bacterial expression vector using EcoRI and NdeI restriction sites.
The allosteric regulation of enzymes has remained under-appreciated primarily because allosteric effectors are not easy to find. The molecular mechanism by which Compound 100 activated SHIP was investigated, first by performing classical enzyme kinetic analysis of its phosphatase activity. Activity measurements were performed with substrate concentrations from 10-100 μM.
The SHIP protein contains a C2 domain located at the carboxyterminal end of its phosphatase domain. […] SHIP lacking its the C2 domain (ΔC2 SHIP) was prepared.

[3] = tested on: J774.1a macrophage cells; experiment: Macrophage TNF-α NO assay (Assay 3); assay type: cell-based; conditions: 10 μg/ml test compound, LPS, 24 hr, Griess reagent; also: key: a ‘+’ indicates a positive result for desired activity; a ‘−’ indicates a negative result for desired activity
Method: Assay 3) Macrophage TNF-α NO assay. J774.1a macrophage cells were treated with 10 μg/ml of test compound dissolved in solvent for 40 minutes prior to the addition of LPS. Culture supernatants were collected after 24 hr. for determination of NO concentration using the Griess reagent.

[4] = tested on: wild-type SHIP; experiment: Scintillation proximity assay, wild-type and ΔC2 SHIP; assay type: binding; conditions: [3H]-Compound 100, SPA beads
Method: as §1, §2

[5] = tested on: Mast cells; experiment: Stimulation of mast cells by FcεRI crosslinking (Assay 4); assay type: cell-based; conditions: anti-DNP IgE, DNP-HSA
Method: Assay 4) Stimulation of mast cells by FcåRI crosslinking. Mast cells were pre-loaded overnight in BMMC medium lacking IL-3 with 0.1 μg/ml anti-DNP IgE (SPE-7, Sigma, Oakville, Ont). For calcium flux measurements, cells were incubated with 2 μM fura 2-acetoxymethyl ester (Molecular Probes, Eugene, Oreg.) in Tyrode's buffer at 23° C. for 45 min. Cells were then washed and incubated in the presence of the test compound 30 min prior to stimulation with the indicated concentration of DNP-human serum albumin (DNP-HSA). Calcium influx was monitored by spectrofluorometry as described previously. For analysis of intracellular signaling, cells were pre-loaded with anti-DNP IgE as above, pre-treated with the test compound for 30 min at 37° C. and stimulated with 20 ng/ml DNP-HSA for 5 min. Total cell lysates were then prepared and analyzed for phospho-PKB, phospho-p38^MAPK, phospho-MAPK, Grb-2 (Cell Signalling, Mississauga, Ont) and SHIP^6 by immunoblot analysis.

[6] = tested on: J774.1a macrophage cells; experiment: Macrophage TNF-α production (Assay 2); assay type: cell-based; conditions: 10 μg/mL test compound, 100 ng/mL LPS, ELISA; also: key: a ‘+’ indicates a positive result for desired activity; a ‘−’ indicates a negative result for desired activity
Method: Assay 2) Macrophage TNF-α production. J774.1a macrophage cells were treated with 10 μg/mL of test compound dissolved in solvent (e.g. cyclodextran) for 40 minutes prior to the addition of 100 ng/mL LPS. Culture supernatants were collected after 2 hr and 5 hr for TNF-α determination by ELISA.

[7] = tested on: neutrophil myeloperoxidase (MPO) activity; experiment: Mouse acute cutaneous anaphylaxis model (Assay 5); assay type: in vivo, CD1 mice
Method: Assay 5) Mouse acute cutaneous anaphylaxis model. 6-8 week old CD1 mice
(§3) (University of British Columbia Animal Facility, Vancouver, BC) were sensitized to the hapten DNP by cutaneous application of 25 μL of 0.5% dinitrofluorobenzene (DNFB) (Sigma, Oakville, Ont) in acetone to the shaved abdomen of mice for two consecutive days. 24 hrs later, test substances (dissolved in 10 μL of 1:2 DMSO:MeOH) were painted on the right ear while the left ear received vehicle control. 30 min after drug application, DNFB was applied to both ears to induce mast cell degranulation. A 6 mm punch was taken from the ear and immediately frozen on dry ice for subsequent determination of neutrophil myeloperoxidase (MPO) activity.
as §3, with “Mouse acute cutaneous anaphylaxis model. 6-8 week old CD1 mice (University” for “(University”, “activity. Compound 100's ability to inhibit cutaneous anaphylaxis was assessed.” for “activity.”
Anaphylactic or allergic responses are mediated by allergen-induced degranulation of pre-sensitized mast cells. The mouse ear edema/cutaneous anaphylaxis model involves pre-sensitization of mice with the haptenizing agent dinitrofluorobenzene (DNFB). One week later the allergic reaction is elicited by painting DNFB onto the ears of the mice. The efficacy of potential anti-inflammatory compounds is tested by topical application of the test substance to one ear and comparing the resulting ear edema or inflammation of the two ears.

- binding to C2 domain [1]: directly bind the C2 domain
- ΔC2 SHIP enzyme activity [2]: could not be enhanced
SMILES: Cc1cc(O)cc2c1[C@]1(C)CCC3C(C)(C)CCC[C@]3(C)[C@H]1C2 (some centres unmarked) [Compound 100]
- Assay Number 3: Macrophage NO [3]: +
- binding to wild-type SHIP vs SHIP lacking C2 domain [4]: bound to wild-type SHIP but not to SHIP lacking its C2 domain
- Assay Number 4: Stimulation of mast cells by FcεRI crosslinking [5]: +
- Assay Number 2: Macrophage TNF-α production [6]: +
- Assay Number 5: Mouse acute cutaneous anaphylaxis model ([7]; topical on ear, DNFB): +
- allergen (DNFB)-induced inflammation ([7]; topically applied vs vehicle control-treated ear): dramatically inhibited
